According to ChEMBL document CHEMBL1201862, “PubChem BioAssay data set” (2004):
Calls of active or inactive are those of the source.

What was measured:
[1] = fluconazole-exposed Candida albicans growth modulators – fluorescence, retest, confirmation (AID 2467); assay type: functional, cell-based
CAAX prenyl protease 2 = target: T1, CAAX prenyl protease 2 (Saccharomyces cerevisiae S288c, UniProt Q03530); assay type: biochemical
T1 sequence (Q03530 whole entry): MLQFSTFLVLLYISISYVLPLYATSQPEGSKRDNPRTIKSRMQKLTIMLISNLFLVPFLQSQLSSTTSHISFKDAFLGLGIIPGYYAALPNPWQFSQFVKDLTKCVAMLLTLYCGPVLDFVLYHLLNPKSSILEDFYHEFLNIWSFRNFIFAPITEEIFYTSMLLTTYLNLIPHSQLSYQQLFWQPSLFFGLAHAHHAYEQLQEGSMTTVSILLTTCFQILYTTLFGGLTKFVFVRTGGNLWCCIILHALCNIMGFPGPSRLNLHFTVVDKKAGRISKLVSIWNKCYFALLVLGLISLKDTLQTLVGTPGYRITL

BJ [2] = experiment: cells; assay type: functional, cell-based; settings: Homo sapiens
[3] = target: Nucleotide-binding oligomerization domain-containing protein 2 (Homo sapiens, UniProt Q9HC29); experiment: inhibition of NOD2-driven NF-kB reporter – cell-based, luminescence, uHTS, HEK293 (AID 1566); assay type: functional
BJ [4] = experiment: growth inhibition of engineered Ras-driven BJ cells – cell-based, alamar blue fluorescence, cherrypicked samples, dose response (AID 2631); assay type: functional; settings: Homo sapiens;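 also: confirmatory dose-response assay in RAS-dependent BJ fibroblasts engineered with TERT, LT and ST, with cytotoxicity read by fluorescence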
CAAX prenyl protease 1 = CAAX prenyl protease 1 (Saccharomyces cerevisiae S288c, UniProt P47154); experiment: yeast CAAX protease Ste24 inhibition – biochemical, S. cerevisiae, plate reader, cherry-pick, dose response (AID 488815)
HEK293 [5] = experiment: NOD2 signaling inhibitors in MDP-stimulated cells, cell-based, uHTS, luminescence (AID 2001); assay type: functional; settings: Homo sapiens
[6] = target: T2, DNA repair protein RAD52 homolog (Homo sapiens, UniProt P43351); assay type: functional, biochemical
T2 sequence (P43351 whole entry): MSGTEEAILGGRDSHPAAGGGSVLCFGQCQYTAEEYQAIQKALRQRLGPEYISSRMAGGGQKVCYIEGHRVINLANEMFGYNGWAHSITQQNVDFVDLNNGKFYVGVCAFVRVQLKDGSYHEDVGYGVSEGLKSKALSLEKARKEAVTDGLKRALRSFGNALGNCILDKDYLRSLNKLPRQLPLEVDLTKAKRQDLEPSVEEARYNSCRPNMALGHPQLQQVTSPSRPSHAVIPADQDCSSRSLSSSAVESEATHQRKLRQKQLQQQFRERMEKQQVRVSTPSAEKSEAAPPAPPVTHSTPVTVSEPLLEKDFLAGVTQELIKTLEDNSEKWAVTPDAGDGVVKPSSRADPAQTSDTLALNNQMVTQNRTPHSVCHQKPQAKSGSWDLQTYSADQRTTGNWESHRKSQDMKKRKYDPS

HEK293 [7] = experiment: cells; assay type: functional, cell-based; settings: Homo sapiens
BJ [8] = experiment: BJ-TERT fibroblast viability loss – cell-based, RAS-independent, luminescence, dose response (AID 1933); assay type: functional; settings: Homo sapiens
[9] = target: T3, Apoptotic protease-activating factor 1 (Homo sapiens, UniProt O14727); assay type: functional
T3 sequence (O14727 whole entry): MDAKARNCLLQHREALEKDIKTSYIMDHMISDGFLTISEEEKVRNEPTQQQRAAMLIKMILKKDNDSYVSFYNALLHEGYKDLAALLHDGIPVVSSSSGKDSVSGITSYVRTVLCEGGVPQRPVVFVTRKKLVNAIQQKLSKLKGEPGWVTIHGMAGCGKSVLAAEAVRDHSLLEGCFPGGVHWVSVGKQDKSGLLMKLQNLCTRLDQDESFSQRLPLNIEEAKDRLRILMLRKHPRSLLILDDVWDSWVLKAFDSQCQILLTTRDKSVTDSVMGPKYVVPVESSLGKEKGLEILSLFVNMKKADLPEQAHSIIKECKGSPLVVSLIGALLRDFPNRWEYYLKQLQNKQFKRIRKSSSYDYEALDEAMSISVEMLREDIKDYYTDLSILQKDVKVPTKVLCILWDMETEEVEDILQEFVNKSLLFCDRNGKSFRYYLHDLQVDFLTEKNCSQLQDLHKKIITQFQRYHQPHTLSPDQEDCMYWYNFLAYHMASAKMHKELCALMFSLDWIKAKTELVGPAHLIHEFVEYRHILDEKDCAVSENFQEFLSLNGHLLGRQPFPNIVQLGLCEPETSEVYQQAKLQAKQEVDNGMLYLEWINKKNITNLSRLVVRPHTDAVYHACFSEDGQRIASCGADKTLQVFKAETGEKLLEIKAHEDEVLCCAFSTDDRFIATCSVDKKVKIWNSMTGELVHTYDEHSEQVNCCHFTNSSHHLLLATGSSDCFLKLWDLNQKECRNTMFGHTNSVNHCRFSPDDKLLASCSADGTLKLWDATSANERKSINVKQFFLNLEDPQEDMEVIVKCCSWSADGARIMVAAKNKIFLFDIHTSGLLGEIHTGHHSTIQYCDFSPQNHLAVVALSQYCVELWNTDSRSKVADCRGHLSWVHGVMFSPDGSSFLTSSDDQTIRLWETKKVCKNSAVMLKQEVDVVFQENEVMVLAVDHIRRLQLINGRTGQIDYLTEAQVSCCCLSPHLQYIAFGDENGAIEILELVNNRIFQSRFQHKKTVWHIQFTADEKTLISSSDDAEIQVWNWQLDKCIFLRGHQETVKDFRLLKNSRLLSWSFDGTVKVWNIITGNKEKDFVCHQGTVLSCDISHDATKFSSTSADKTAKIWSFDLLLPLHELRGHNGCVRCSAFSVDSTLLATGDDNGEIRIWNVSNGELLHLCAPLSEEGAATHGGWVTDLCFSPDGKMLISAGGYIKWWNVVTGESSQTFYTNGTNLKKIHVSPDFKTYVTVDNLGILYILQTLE

HEK293 [10] = experiment: inhibition of NOD1-driven NF-kB reporter – cell-based, luminescence, uHTS, primary screen (AID 1578); assay type: functional; settings: Homo sapiens
INS1 = experiment: INS-1E survival protection against cytokine death – cell-based, luminescence, retest, dose response (AID 449756); assay type: functional; settings: Rattus norvegicus;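 also: cell death triggered by IL-1 beta plus TNF-alpha plus IFN-gamma mixture; protective hits raise ATP signal compared with cytokine alone wells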
[11] = NIH-3T3 fibroblast cytotoxicity, dose response, cytotoxicity control, cell-based, fluorescence, Alamar Blue, secondary assay (AID 2327); assay type: functional;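 also: NIH-3T3 mouse fibroblasts cultured with fluconazole at 8 µg/mL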
[12] = HEK-293T viability loss after treatment – luminescence, T-cell screen hits, cytotoxicity control for TCR NF-kB inhibitor project, dose response (AID 489026); assay type: functional, cell-based;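 also: cells exposed to compound about 14 hours before the viability readout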
Melanocortin receptor 4 = Melanocortin receptor 4 (Homo sapiens, UniProt P32245); assay type: functional, cell-based;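 also: Cell-based assay with luminescence read-out, confirmatory dose-response testing for agonist activity of biased ligands at MC4R; human U2OS cells with tagged receptor and beta-arrestin; potency of agonists that increase receptor coupling to beta-arrestin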
[13] = DRD fibroblast viability loss – cell-based, non-viral oncogenic, luminescence, dose response (AID 1934); assay type: functional; settings: Homo sapiens
[14] = target: Heat shock protein HSP 90-alpha (Homo sapiens, UniProt P07900); assay type: functional, organism-based
BJ [15] = experiment: BJ-TERT-LT-ST fibroblast viability loss – cell-based, RAS-independent, luminescence, dose response (AID 1935); assay type: functional; settings: Homo sapiens;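 also: BJ fibroblasts immortalized with TERT plus LT and ST oncogenes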
HEK293 [16] = experiment: cells; assay type: functional, cell-based; settings: Homo sapiens; remark: listed apart in the source
HEK293 [17] = experiment: cells; assay type: functional, cell-based; settings: Homo sapiens; remark: listed apart in the source
[18] = target: T4, Ubiquitin-conjugating enzyme E2 N (Homo sapiens, UniProt P61088); assay type: functional;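 also: Dose-response confirmation in a TR-FRET assay detecting UBC13-driven polyubiquitin chain formation, inhibition measured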
T4 sequence (P61088 whole entry): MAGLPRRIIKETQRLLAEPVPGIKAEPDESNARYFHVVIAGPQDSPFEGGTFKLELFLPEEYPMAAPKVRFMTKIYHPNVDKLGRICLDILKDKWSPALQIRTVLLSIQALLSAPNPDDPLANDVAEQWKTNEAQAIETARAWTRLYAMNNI

Galanin receptor type 2 = Galanin receptor type 2 (Homo sapiens, UniProt O43603); experiment: Dose Response cell-based high-throughput screening assay to identify antagonists of galanin receptor 2 (GALR2). [Related pubchem assays: 828, 866 ]; assay type: functional
[19] = MIN6 cell viability loss – mouse insulinoma, cytotoxicity control, dose response (AID 2122); assay type: functional;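 also: confirmatory high-throughput counterscreen run to flag cytotoxic compounds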
[20] = decrease of insulin promoter-GFP reporter – imaging, high-content screening, mouse beta cells (AID 1628); assay type: functional; settings: MIN6
[21] = reduction of Shn3 3'UTR-driven luciferase in osteoblasts – cell-based, Clone20 osteoblasts, firefly luciferase, cherry-picked, dose response (AID 624132); assay type: functional;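 also: firefly luciferase luminescence from reporter carrying the Shn3 3'UTR in osteoblasts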
[22] = non-specific 3'UTR reporter inhibition in Clone20-Shn3RL – cell-based, Renilla luciferase, cherry-picked, counter-screen for Shn3 inhibitor project, dose response (AID 624133); assay type: functional
[23] = target: Intestinal-type alkaline phosphatase (Homo sapiens, UniProt P09923); experiment: inhibition of human intestinal alkaline phosphatase – biochemical, dose response (AID 488876); assay type: functional
[24] = target: T5, Alkaline phosphatase, tissue-nonspecific isozyme (Homo sapiens, UniProt P05186); experiment: TNAP enzyme inhibition by screening hits, dose response, selectivity assay for mouse IAP inhibitor project, biochemical, human TNAP, uHTS hits (AID 488906); assay type: functional
T5 sequence (P05186 whole entry): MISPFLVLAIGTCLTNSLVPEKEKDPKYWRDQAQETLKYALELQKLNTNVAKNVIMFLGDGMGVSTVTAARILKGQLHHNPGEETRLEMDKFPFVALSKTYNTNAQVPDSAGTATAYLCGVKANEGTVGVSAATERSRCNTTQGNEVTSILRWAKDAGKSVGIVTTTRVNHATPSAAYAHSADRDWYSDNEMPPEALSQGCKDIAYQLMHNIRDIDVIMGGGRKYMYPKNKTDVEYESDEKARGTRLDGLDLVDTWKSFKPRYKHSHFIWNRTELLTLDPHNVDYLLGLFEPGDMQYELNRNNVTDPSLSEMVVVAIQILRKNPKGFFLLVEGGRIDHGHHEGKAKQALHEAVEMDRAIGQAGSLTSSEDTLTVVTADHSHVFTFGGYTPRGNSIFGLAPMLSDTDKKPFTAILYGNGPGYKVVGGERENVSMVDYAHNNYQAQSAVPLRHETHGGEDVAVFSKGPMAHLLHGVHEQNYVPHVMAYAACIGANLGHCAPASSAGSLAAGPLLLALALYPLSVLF

[25] = target: Intestinal-type alkaline phosphatase (Mus musculus, UniProt P24822); experiment: PubChem AID 488785; assay type: functional
Chain of Intestinal-type alkaline phosphatase (Mus musculus, UniProt P24822) (P24822 whole entry): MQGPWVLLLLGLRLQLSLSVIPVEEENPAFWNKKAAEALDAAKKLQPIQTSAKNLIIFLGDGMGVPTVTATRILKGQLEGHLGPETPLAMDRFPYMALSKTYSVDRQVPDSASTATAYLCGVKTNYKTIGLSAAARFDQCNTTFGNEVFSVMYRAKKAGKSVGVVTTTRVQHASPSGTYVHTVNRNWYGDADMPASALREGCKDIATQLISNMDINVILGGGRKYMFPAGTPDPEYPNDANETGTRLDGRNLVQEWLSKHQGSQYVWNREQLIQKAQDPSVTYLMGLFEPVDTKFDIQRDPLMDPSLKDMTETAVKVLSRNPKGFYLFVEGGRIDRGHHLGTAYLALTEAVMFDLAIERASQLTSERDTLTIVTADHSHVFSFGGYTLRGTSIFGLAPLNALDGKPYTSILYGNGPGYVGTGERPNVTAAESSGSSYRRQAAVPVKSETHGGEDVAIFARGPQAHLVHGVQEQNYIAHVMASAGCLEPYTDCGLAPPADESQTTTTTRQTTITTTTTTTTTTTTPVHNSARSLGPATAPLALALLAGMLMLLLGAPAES

Chain of Intestinal-type alkaline phosphatase (Homo sapiens, UniProt P09923) (P09923 whole entry): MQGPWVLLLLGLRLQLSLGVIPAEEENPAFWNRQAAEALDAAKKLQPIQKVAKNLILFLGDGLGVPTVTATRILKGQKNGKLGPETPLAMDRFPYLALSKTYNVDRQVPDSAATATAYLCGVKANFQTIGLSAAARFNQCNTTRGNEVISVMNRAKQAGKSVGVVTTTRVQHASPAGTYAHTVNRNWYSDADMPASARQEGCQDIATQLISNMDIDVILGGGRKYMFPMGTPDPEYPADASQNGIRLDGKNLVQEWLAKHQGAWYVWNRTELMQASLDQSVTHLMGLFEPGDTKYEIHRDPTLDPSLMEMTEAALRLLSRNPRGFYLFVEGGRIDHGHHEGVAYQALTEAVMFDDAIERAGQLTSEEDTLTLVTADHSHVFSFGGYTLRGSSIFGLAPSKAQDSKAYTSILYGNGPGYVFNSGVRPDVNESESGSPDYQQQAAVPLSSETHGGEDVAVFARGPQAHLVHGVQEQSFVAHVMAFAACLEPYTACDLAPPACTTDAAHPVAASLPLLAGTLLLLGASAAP
Chain of CAAX prenyl protease 1 (P47154 whole entry): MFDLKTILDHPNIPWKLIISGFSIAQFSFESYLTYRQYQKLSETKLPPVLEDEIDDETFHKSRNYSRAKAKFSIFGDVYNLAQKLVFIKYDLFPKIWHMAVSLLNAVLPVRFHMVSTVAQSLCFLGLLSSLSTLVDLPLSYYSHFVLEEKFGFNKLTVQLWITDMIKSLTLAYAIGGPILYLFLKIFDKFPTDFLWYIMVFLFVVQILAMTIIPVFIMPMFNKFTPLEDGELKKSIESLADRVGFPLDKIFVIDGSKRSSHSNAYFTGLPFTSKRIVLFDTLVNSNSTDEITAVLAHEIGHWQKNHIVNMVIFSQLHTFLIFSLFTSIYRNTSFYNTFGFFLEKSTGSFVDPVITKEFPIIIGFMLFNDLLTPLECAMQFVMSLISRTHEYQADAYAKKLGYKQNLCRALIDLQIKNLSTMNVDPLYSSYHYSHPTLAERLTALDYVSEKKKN
Chain of Nucleotide-binding oligomerization domain-containing protein 2 (Q9HC29 whole entry, the tested form may be a part): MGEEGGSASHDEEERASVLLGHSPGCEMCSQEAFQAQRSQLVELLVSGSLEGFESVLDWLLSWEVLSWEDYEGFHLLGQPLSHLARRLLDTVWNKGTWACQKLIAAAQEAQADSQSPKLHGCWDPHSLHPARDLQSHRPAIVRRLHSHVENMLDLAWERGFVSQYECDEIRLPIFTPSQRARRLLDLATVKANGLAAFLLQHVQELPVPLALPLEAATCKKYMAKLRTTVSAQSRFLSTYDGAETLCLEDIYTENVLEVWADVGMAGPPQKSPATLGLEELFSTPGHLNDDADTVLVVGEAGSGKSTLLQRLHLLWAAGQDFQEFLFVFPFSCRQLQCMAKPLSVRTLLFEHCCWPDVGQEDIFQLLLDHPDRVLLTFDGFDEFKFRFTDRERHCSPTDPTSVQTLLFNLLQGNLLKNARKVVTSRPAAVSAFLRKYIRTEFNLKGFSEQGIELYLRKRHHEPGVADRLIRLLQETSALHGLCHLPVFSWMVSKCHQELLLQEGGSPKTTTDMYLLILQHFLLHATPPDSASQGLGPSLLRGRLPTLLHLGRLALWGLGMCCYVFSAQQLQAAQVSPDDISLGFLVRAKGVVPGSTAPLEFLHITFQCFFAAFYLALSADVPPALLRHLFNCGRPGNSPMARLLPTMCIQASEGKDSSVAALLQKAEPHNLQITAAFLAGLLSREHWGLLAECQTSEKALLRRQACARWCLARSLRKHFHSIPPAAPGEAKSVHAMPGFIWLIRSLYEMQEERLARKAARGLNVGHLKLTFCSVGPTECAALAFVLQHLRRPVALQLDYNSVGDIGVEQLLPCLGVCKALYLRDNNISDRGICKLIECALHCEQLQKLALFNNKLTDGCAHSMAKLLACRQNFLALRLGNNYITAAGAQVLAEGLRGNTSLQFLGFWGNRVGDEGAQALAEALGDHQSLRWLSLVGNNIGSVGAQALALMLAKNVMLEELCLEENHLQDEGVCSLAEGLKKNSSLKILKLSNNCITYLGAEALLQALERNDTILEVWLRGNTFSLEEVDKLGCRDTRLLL
Chain of Galanin receptor type 2 (O43603 whole entry): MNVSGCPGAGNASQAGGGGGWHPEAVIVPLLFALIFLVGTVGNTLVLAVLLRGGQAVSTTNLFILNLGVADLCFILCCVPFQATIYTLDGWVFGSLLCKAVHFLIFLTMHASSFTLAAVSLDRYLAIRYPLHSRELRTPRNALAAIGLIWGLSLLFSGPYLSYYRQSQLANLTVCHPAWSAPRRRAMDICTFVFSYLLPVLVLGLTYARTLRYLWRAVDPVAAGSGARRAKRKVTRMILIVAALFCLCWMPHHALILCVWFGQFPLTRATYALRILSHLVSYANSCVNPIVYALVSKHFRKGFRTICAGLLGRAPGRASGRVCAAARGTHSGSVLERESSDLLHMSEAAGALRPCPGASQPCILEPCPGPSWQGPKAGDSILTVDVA
Chain of Melanocortin receptor 4 (P32245 whole entry): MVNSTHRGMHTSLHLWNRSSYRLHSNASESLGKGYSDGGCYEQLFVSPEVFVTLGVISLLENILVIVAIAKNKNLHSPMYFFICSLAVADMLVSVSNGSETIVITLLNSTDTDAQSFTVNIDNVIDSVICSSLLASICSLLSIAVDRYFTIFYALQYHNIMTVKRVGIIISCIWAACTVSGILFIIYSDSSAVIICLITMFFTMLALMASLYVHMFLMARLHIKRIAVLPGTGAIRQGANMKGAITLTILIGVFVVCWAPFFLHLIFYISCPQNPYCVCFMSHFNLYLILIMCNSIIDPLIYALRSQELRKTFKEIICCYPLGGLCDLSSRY

CCC(C)(C)c1ccc(OCCCC[n+]2cccc(C)c2C)c(C(C)(C)CC)c1
inconclusive: EC50 (BJ [2]) 4.18 µM | EC50 (BJ [8]) 3.96 µM
active: EC50 [1] 0.67 µM | AC50 (CAAX prenyl protease 2) 8.03 µM | EC50 [3] 8.15 µM | EC50 (BJ [4]) 2.48 µM | AC50 (CAAX prenyl protease 1) 9.82 µM | IC50 (HEK293 [5]) 2.48 µM | AC50 [6] 31.2 µM | IC50 (HEK293 [7]) 3.2 µM | IC50 [9] 20.2 µM | EC50 (HEK293 [10]) 4.56 µM | AC50 (INS1) 0.632 µM | EC50 (Melanocortin receptor 4) > 3.3 µM | EC50 [13] 5.62 µM | AC50 [14] 5.38 µM | EC50 (BJ [15]) 5.09 µM | IC50 (HEK293 [17]) 6.37 µM
inactive: EC50 [11] > 160 µM | IC50 [12] 56.1 µM | IC50 (HEK293 [16]) > 20 µM | IC50 [18] > 20 µM

COC(=O)c1ccc(COC(=O)c2[nH]c(C)c(C(C)=O)c2C)o1
active: IC50 [19] 3.23 µM | IC50 [20] 2.72 µM | AC50 [21] 2.58 µM | AC50 [22] 2.46 µM
> 42 µM (not active): IC50 (Galanin receptor type 2)

CN(CC(=O)NC(c1ccccc1)c1ccccc1)Cc1nc(O)c2ccccc2n1
active: IC50 [23] 26.6 µM | IC50 [24] 74.2 µM | IC50 [25] 7.93 µM
